Measured values as given in patent US20110152263A1, “COMPOSITION AND METHOD FOR INHIBITING NOROVIRUS INFECTION” (priority 2006, published 2011).

Experiments:
[1] = target: VA387 binding to the B antigen; assay: Saliva-based blocking EIA: VA387 VLP binding to B antigen; set-up: species or system Norovirus; details: for EC50: VA387 VLP binding to B antigen saliva, read-out: EC50 rVA387 B; for inhibition of VA387 binding to the B antigen: one saliva sample
Description: (§1) A saliva based blocking assay offers several advantages for anti-Norovirus agent screening. First, the assay is a solid phase blocking assay which is simple and suitable for large scale screening. Second, the source of HBGAs used in the assay was from healthy human volunteers, which is likely to represent the natural forms of Norovirus receptors. Third, the assay is highly sensitive and specific. Finally, a panel of saliva samples can be assembled from different individuals representing different blood types, from which the results obtained in primary screenings can be validated.
(§2) To optimize the blocking assays, we have titrated all reagents used in the assays including the VLPs, the first and second antibodies, the blocking reagent (dried cow milk), and a panel of saliva samples from different donors. […] For comparison of daily results, eight control wells containing everything but compounds were included in each plate, and the assays were considered valid when the daily OD450 variations in these wells were less than 20%. Less than 1% of the total screening runs failed in our study.
(§3) Cow milk contains a large amount of variable proteins, lipids and glycans which can easily interfere with the assay particularly when a low concentration of compounds (μM) was used in our screening. To avoid any false-negative results, the step of addition of blotto in the EIA for all screening experiments in this study was removed.
(§4) Baculovirus-expressed recombinant capsid proteins of four Norovirus strains representing four distinct receptor binding patterns were studied: Norovirus strains Norwalk, VA387, VA207, and MOH. The procedures of production of Norovirus VLPs in insect cell Spodoptera frugiperda (Sf9) have described in “Expression, self-assembly, and antigenicity of the Norwalk virus capsid protein”, J Virol 66:6527-32, Jiang et al (1992), and in “Baculovirus expression and antigenic characterization of the capsid proteins of three Norwalk-like viruses”, Arch Virol 147:119-30, Jiang et al. (2002), the disclosures of which are incorporated herein by reference. Briefly, a cDNA from the 3′ end of the genome containing the viral capsid gene (open reading frame 2 [ORF-2] was cloned from the viral RNA extracted from stool specimens. The recombinant baculoviruses carry the viral capsid genes were constructed from the cloned cDNAs using the Bac to Bac expression system according to the manufacture's instructions (Invitrogen Life Technologies, Carlsbad, Calif.). VLPs were partially purified by sucrose gradient centrifugation and stored at −80° C. Protein concentrations were determined by measuring the optical density at 280 nm (OD280) using a GeneQuant spectrophotometer (Pharmacia, Mich.) and by comparison with a bovine serum albumin standard in a sodium dodecyl sulfate-polyacrylamide gel (25). The purity of VLPs used in this study was over 90% which was determined by SDS-PAGE analysis.
(§5) Saliva samples were collected from healthy adult volunteers under an approval of human subject research protocol by the Institutional Review Board at the Cincinnati Children's Hospital Medical Center. Except for gender and race, no other personal information was collected. A total of 5-10 ml of saliva was collected from each volunteer, and the samples were processed immediately after collection. To avoid potential Norovirus-specific antibodies that may interfere in the receptor binding assays, saliva samples were boiled at 100° C. for 10 min, and then centrifuged at 10,000×g for 5 min. The clear supernatant was stored at −80° C. until use. The HBGA types of the saliva samples were determined by enzyme immune assays with monoclonal antibodies specific to human HBGAs (8). Saliva sample from a type A donor was selected for the primary screening, and a total of 25 saliva samples of known ABO, secretor, and Lewis types were selected for further studies to confirm the primary screening results. […]

[2] = target: VA387 binding to the H antigen; assay: Saliva-based blocking EIA: VA387 VLP binding to H antigen; set-up: species or system Norovirus; details: for EC50: VA387 VLP binding to H antigen saliva, read-out: EC50 rVA387 H; for inhibition of VA387 binding to the H antigen: one saliva sample
Description: as §1, §2, §3, §4, §5

[3] = system: Norwalk virus binding to the A antigen; assay: Saliva-based blocking EIA: Norwalk virus VLP binding to A antigen; set-up: species or system Norovirus; details: for EC50: Norwalk VLP binding to A antigen, read-out: EC50 rNorwalk A
Description: as §1, §2, §3, §4, §5

[4] = target: MOH binding to the A antigen; assay: Saliva-based blocking EIA: MOH VLP binding to A antigen; set-up: species or system Norovirus; details: MOH VLP binding to type A saliva; read-out: EC50 rMOH A
Description: as §1, §2, §3, §4, §5

[5] = target: MOH binding to the B antigen; assay: Saliva-based blocking EIA: MOH VLP binding to B antigen; set-up: species or system Norovirus; details: MOH VLP binding to type B saliva; read-out: EC50 rMOH B
Description: as §1, §2, §3, §4, §5

[6] = system: Norwalk virus binding to the H antigen; assay: Saliva-based blocking EIA: Norwalk virus VLP binding to H antigen; set-up: species or system Norovirus; details: for EC50: Norwalk VLP binding to H antigen, read-out: EC50 rNorwalk H
Description: as §1, §2, §3, §4, §5

[7] = target: VA387 VLPs binding to the A antigen; assay: Saliva-based blocking EIA: VA387 VLP binding to type A saliva; set-up: species or system Norovirus; details: read-out: EC50 rVA387 A
Description: as §1, §2, §3, §4, §5

[8] = target: VA207 binding to the Lewis antigens; assay: Saliva-based blocking EIA: VA207 VLP binding to Lewis antigens; set-up: species or system Norovirus; details: VA207 VLP binding to Lewis antigen; read-out: EC50 rVA207 Le
Description: as §1, §2, §3, §4, §5

[9] = system: Human cervical carcinoma cells (HeLa); assay: MTS cytotoxicity assay, HeLa cells; format: cell-based; details: 3 days, average of three experiments

SMILES | EC50 [1] | inhibition of VA387 binding to the B antigen [1] | EC50 [2] | inhibition of VA387 binding to the H antigen [2] | blocking of Norwalk virus binding to the A antigen [3] | EC50 [3] | EC50 [4] | EC50 [5] | inhibition of Norwalk virus binding to the H antigen [6] | EC50 [6] | EC50 [7] | EC50 [8] | CC50 [9]
CCC[n+]1cc(-c2ccccc2)nc(N2CCOCC2)n1.[I-] [Compound 1] | 5.8 µM | dose-dependant inhibition | 6.8 µM | dose-dependant inhibition | blocked | 15.6 µM | > 100 µM | > 100 µM | inhibited | 18.9 µM | 2.2 µM | > 100 µM | 
CCOC(=O)C1=C(C)OC(N)=C(C#N)C1c1ccc(OCc2ccc(C)cc2)c([N+](=O)[O-])c1 (stereo not shown) [Compound 2] | 18.6 µM | dose-dependant inhibition | 11.9 µM | dose-dependant inhibition | blocked | 22.9 µM | 16.5 µM | 13.3 µM | inhibited | 24.5 µM | 4.8 µM | > 100 µM | 78.6 µM
C=C(SCCNC(=O)NCCCCCCNC(=O)NCCSc1ccccc1O)C(C)=CC [Compound 4] | 13.1 µM | dose-dependant inhibition | 14.2 µM | dose-dependant inhibition | blocked | 14.1 µM | > 100 µM | > 100 µM | inhibited | 22.6 µM | 8.1 µM | > 100 µM | 
CCCc1ccc(OCc2ccc(C(=O)N/N=C/c3ccc(Cl)cc3O)o2)cc1 [Compound 5] | 13.5 µM | dose-dependant inhibition | 7.2 µM | dose-dependant inhibition | blocked | 18.2 µM | > 100 µM | > 100 µM | inhibited | 36.3 µM | 9.1 µM | > 100 µM | 46.7 µM
O=CC(=O)c1ccc2c(c1)Cc1cc(C(=O)C=O)ccc1-2 [Compound 6] | 44.6 µM | dose-dependant inhibition | 41.1 µM | dose-dependant inhibition |  | > 100 µM | > 100 µM | > 100 µM |  | > 100 µM | 9.3 µM | > 100 µM | 52.7 µM
Oc1ccc(C=Nc2nccs2)c(O)c1 [Compound 7] | 26 µM | dose-dependant inhibition | 7.6 µM | dose-dependant inhibition |  | > 100 µM | > 100 µM | > 100 µM |  | > 100 µM | 9.6 µM | > 100 µM | 
O=C(/C=C/c1ccc(-c2cc(Cl)cc(Cl)c2)o1)c1cccs1 [Compound 8] | > 100 µM | did not have any inhibitory activity | > 100 µM | did not have any inhibitory activity |  | > 100 µM | > 100 µM | > 100 µM |  | > 100 µM | 10.9 µM | > 100 µM | 
Cc1ccc(NC(=O)CC(c2ccccc2)c2ccccc2)cc1C [Compound 9] | > 100 µM | did not have any inhibitory activity | 47.5 µM | revealed inhibitory activity |  | > 100 µM | > 100 µM | > 100 µM |  | > 100 µM | 11.7 µM | > 100 µM | 40.3 µM
CC(C)OC(=O)CC(=O)CSc1nc(-c2ccc(F)cc2)cc(-c2cccs2)c1C#N [Compound 10] | 7.9 µM | dose-dependant inhibition | 7.5 µM | dose-dependant inhibition | blocked | 35 µM | > 100 µM | > 100 µM | inhibited | 19.8 µM | 11.8 µM | > 100 µM | 
O=C(C(=O)c1ccc(C(=O)c2ccc(C(=O)C(=O)c3ccc(Sc4ccccc4)cc3)cc2)cc1)c1ccc(Sc2ccccc2)cc1 [Compound 11] | 35.3 µM | dose-dependant inhibition | 26.1 µM | dose-dependant inhibition |  | > 100 µM | > 100 µM | > 100 µM |  | > 100 µM | 12.8 µM | > 100 µM | 
CCCCc1ccc(NC(=O)c2ccc(C)cc2)cc1 [Compound 12] | 32.5 µM | dose-dependant inhibition | 28.2 µM | dose-dependant inhibition | blocked | 53 µM | > 100 µM | > 100 µM |  | 47.8 µM | 12.8 µM | > 100 µM | 
Cc1cc(O)c(Sc2c(O)cc(C)cc2C(C)(C)c2ccccc2)c(C(C)(C)c2ccccc2)c1 [Compound 13] | 49.5 µM | dose-dependant inhibition | 48.1 µM | dose-dependant inhibition |  | > 100 µM | > 100 µM | > 100 µM |  | > 100 µM | 13.6 µM | > 100 µM | 70.6 µM
CCCOc1ccc(-c2cc(C(=O)N/N=C/c3ccc(OCC)cc3)[nH]n2)cc1 [Compound 14] | > 100 µM | did not have any inhibitory activity | > 100 µM | did not have any inhibitory activity |  | > 100 µM | > 100 µM | > 100 µM |  | > 100 µM | 13.7 µM | > 100 µM | 12.3 µM
FC(F)(F)c1ccc(N/N=C/c2cc(Br)cs2)cc1 [Compound 15] | > 100 µM | did not have any inhibitory activity | > 100 µM | did not have any inhibitory activity | blocked | 22.5 µM | > 100 µM | > 100 µM | inhibited | > 100 µM | 14.1 µM | > 100 µM | 7.6 µM
